Experimental data as given in patent publication US9067894B1, “Compound, composition, and method of activating GIRK potassium channel and use of same for treating conditions of interest” (Vanderbilt University, priority 2013, dated 2015).
“Also recorded” adds a separate entry of the source.

What was measured:
[1] = Home cage locomotor activity (SmartCage); assay type: in vivo, mouse; settings: mice, 60 mg/kg i.p., 24 hours after injection
Experimental: The SmartCageTM system ([…], Inc., Burlingame, Calif.) was used to assess compound effects on spontaneous homecage activity. Automated data analysis was performed using CageScoreTM software ([…], Inc.). The home cage activity was determined by beam breaks (x, y, and z photo-beam break counts). Distance traveled in centimeters was obtained from the lower horizontal sensors (x and y) taking into account the path taken. Average velocity was distance traveled/second in the forward direction, averaged over the block time (bin). Mice (male C57/BL6, 8-10 months old, approximately 30 g) mice were assessed continuously for 72 hours. The first 24 hours was used as a habituation period. The locomotion data obtained from the second 24 hours served as the baseline data for each mouse. […] After receiving their respective treatments, each mouse's locomotor activity was monitored over the 24 hours to assess recovery from drug effects.

GABAA (flunitrazepam) = test: Radioligand displacement (Ricerca); assay type: binding, rat; settings: 10 μM
Interleukin IL-1 = biological target: T1, Interleukin IL-1 (Mus musculus, UniProt P13504); test: Radioligand displacement (Ricerca); assay type: binding
T1 construct: Ricerca (contract laboratory that ran the panel)

Estrogen ERα = biological target: T2, Estrogen ERα (Homo sapiens, UniProt P03372); test: Radioligand displacement (Ricerca); assay type: binding
T2 construct: Ricerca
T2 sequence (P03372 whole entry): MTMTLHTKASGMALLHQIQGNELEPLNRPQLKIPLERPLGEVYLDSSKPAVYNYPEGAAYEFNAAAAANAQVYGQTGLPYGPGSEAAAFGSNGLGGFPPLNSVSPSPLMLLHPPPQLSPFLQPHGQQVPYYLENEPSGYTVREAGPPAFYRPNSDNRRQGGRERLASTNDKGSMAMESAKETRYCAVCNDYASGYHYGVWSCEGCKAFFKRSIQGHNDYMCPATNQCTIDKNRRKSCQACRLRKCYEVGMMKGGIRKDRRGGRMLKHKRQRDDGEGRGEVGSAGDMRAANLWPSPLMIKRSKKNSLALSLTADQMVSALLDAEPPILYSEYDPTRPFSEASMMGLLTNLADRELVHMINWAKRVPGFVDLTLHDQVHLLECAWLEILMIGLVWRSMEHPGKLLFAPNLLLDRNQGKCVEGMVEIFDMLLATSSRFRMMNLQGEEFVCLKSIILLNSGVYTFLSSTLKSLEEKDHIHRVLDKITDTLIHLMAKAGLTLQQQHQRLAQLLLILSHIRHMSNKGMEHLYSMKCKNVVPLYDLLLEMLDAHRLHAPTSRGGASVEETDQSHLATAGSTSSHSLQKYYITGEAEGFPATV

T1 sequence (P13504 20-576): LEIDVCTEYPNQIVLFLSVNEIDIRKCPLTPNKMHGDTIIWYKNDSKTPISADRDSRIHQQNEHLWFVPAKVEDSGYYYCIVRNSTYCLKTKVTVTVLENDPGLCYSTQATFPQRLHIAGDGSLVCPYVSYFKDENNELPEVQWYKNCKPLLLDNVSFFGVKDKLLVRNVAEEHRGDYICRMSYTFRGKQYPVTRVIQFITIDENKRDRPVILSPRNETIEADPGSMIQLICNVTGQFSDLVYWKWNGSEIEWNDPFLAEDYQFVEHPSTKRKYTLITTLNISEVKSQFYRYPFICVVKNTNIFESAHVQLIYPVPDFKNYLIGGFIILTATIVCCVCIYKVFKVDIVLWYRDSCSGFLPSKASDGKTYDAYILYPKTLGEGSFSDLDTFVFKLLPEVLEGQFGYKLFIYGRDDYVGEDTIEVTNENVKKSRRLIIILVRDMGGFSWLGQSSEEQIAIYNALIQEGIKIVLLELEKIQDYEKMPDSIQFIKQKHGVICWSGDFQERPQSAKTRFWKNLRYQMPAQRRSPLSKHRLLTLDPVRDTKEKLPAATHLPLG

## Cc1cc(NC(=O)Nc2ccc(F)c(F)c2)n(-c2ccccc2)n1 [VU0456810, 1-(3,4-difluorophenyl)-3-(3-methyl-1-phenyl-1H-pyrazol-5-yl)urea]
[1]
  locomotor activity in home cage vs vehicle: overall decrease in locomotor activity; also recorded: decreased
GABAA (flunitrazepam)
  % Inhibition: 24%
Interleukin IL-1
  inhibition at 10 µM: 2%
Estrogen ERα
  inhibition at 10 µM: 1%
